Source: patent US7084176B2, “N-arylphenylacetamide derivatives and medicinal compositions containing the same” (Dainippon Pharmaceutical Co., Ltd., priority 2001, dated 2006)
Like-named read-outs stand apart in the source and are kept apart here.

What was measured:
[1] = system: male Std:ddY mice; assay: Phenyl-1,4-benzoquinone-induced writhing test; format: in vivo; conditions: for ED50 / ED50 (mg/kg sc) / ED50 (mg/kg po): logit analysis; for inhibition in vivo at 1 mg/kg / inhibition in vivo at 10 mg/kg: 1 h; for inhibition in vivo at 1 mg/kg: subcutaneously administered at a dose of 1 mg/kg
Protocol: Phenyl-1,4-benzoquinone-induced Writhing Test Referring to the method disclosed in Proc. Soc. exp. Biol. […] For oral administration, a test compound was suspended in 0.5% tragacanth solution. […] In the control group, a physiological saline solution containing 10% Tween 80 and 10% ethanol was administered in the case of subcutaneous administration, or a 0.5% tragacanth solution was administered in the case of oral administration. The number of writhing movements in the test compound-treated group was compared with that in the control group, and the writhing inhibitory percentage was calculated therefrom and considered as an analgesic effect. Writhing inhibitory percentage (%)=[(A−B)/A]×100 In the above equation, A means the number of writhing movements in the control group, and B means the number of writhing movements in the test compound-treated group. From the writhing inhibitory percentage of the test compound, ED50 (mg/kg) was calculated by logit analysis.

[2] = system: Jcl:SD strain male rats; assay: Study of pungency (eye wiping test); format: in vivo; conditions: a drop into the eye of rats, counted for 3 minutes, average ± S.E.M.
Protocol: Experiment 2: Study of Pungency (Eye Wiping Test)
The pungency of the test compounds were studied referring to the method of Jancso et al. [Acta Physiol. Acad. Sci. Hung., 19, 113–131 (1961)] and the method of Szallasi et al. [Brit. J. Pharmacol., 119, 283–290 (1996)]. A test compound was dissolved in a physiological saline solution containing 10% ethanol and 10% Tween 80 into various concentrations (μg/ml), and a drop of the solution thereof was added dropwise into the eye of Jcl:SD strain male rats (5 to 25 […] per group, body weight; 220 to 280 g). Then, the number of the protective wiping movements with forefoot was counted for 3 minutes, and was considered as an index for pungency. The test results are expressed as average value±S.E.M., and the statistical significant differences between each test compound-treated group and the control group were analyzed using non-parametric Dunnett's multiple range test, and p<0.05 was considered as significant difference.

[3] = literature report; cited from earlier work
[4] = system: VR1 receptor; conditions: animal pain model; VR1 receptor antagonist; cited from earlier work
[5] = Mus musculus, po, oral administration, writhing inhibition, read-out: ED50 (mg/kg po)
[6] = Mus musculus, sc, 60 minutes before PBQ, read-out: Inhibitory percentage (%)
[7] = Mus musculus, sc, subcutaneous administration, writhing inhibition, read-out: ED50 (mg/kg sc)
[8] = Mus musculus, po, orally administered at a dose of 10 mg/kg, 60 minutes before PBQ, read-out: Inhibitory percentage (%)

SMILES | ED50 [1, 5] | inhibition in vivo at 1 mg/kg [1, 6] | ED50 [1, 7] | inhibition in vivo at 10 mg/kg [1, 8] | Number of wiping movements ([2]; concentration 100 μg/ml) | Number of wiping movements ([2]; concentration 500 μg/ml) | other results
COc1cc(CNC(=O)CCCC/C=C/C(C)C)ccc1O [Capsaicin, trans-8-methyl-N-vanillyl-6-nonenamide, reference compound] | > 30 mg/kg | 46.6% | 1.15 mg/kg | – | – | – | inhibition in vivo at 30 mg/kg ([1]; Mus musculus, po, orally administered at a dose of 30 mg/kg, read-out: Inhibitory percentage (%)): 20.6%; Number of wiping movements ([2]; concentration 1 μg/ml): 6.0 ± 0.8; Number of wiping movements ([2]; concentration 2 μg/ml): 7.8 ± 1.4; Number of wiping movements ([2]; concentration 5 μg/ml): 11.2 ± 3.0; Number of wiping movements ([2]; concentration 5 μg/ml, listed as capsaicin): significantly increased; Number of wiping movements ([2]; concentration 10 μg/ml): 26.4 ± 6.0; Number of wiping movements ([2]; concentration 20 μg/ml): 38.0 ± 4.8
COc1cc(CC(=O)Nc2cccc(C3CCC(C(C)(C)C)CC3)c2)ccc1O (centres unmarked) [Example 20, N-[3-(4-tert-butylcyclohexan-1-yl)phenyl]-4-hydroxy-3-methoxyphenylacetamide] | 1.28 mg/kg | 96.1% | ≤ 0.1 mg/kg | 97.1% | 5.0 ± 1.3 | 10.6 ± 0.7 | ED50 (mg/kg sc) ([1]; subcutaneous administration, writhing inhibition, listed as Ex. 20): 0.056 mg/kg
COc1cc(CC(=O)Nc2cccc(CCc3ccccc3)c2)ccc1OCCN [Example 60, 4-(2-aminoethoxy)-3-methoxy-N-[3-(2-phenylethyl)phenyl]-phenylacetamide] | ≤ 1 mg/kg | 50.5% | 0.83 mg/kg | – | – | no significant increase | ED50 (mg/kg po) ([1]; oral administration, writhing inhibition, listed as Ex. 60): 0.68 mg/kg; Number of wiping movements ([2]; concentration 500 μg/ml, listed as Ex. 60): 4.2 ± 1.2; Number of wiping movements ([2]; concentration 1000 μg/ml): 8.4 ± 2.1
COc1cc(CC(=O)Nc2cccc(C3CCCCC3)c2)ccc1OCCN [Example 61, 4-(2-aminoethoxy)-N-(3-cyclohexylphenyl)-3-methoxyphenylacetamide] | 3 mg/kg | 72.8% | 0.13 mg/kg | 89% | 7.4 ± 2.1 | 15.6 ± 4.5 | Number of wiping movements ([2]; concentration 20 μg/ml): 2.0 ± 0.8
COc1cc(CC(=O)Nc2cccc(C3CCC(C(C)(C)C)CC3)c2)ccc1OCCN (centres unmarked) [Example 62, 4-(2-aminoethoxy)-N-[3-(4-tert-butylcyclohexan-1-yl)phenyl]-3-methoxyphenylacetamide] | – | 100% | 0.23 mg/kg | 96.1% | – | no significant increase | ED50 (mg/kg po) ([1]; oral administration, writhing inhibition, listed as Ex. 62): 0.43 mg/kg; Number of wiping movements ([2]; concentration 500 μg/ml, listed as Ex. 62): 4.6 ± 1.2; Number of wiping movements ([2]; concentration 1000 μg/ml): 7.6 ± 1.4
COc1cc(CC(=O)Nc2cccc(-c3cccc(F)c3)c2)ccc1OCCN [Example 66, 4-(2-aminoethoxy)-N-[3-(3-fluorophenyl)phenyl]-3-methoxyphenylacetamide] | – | – | – | 100% | 5.6 ± 2.4 | no significant increase | Number of wiping movements ([2]; concentration 500 μg/ml, listed as Ex. 66): 3.6 ± 1.6
COc1cc(CC(=O)Nc2cccc(-c3ccc(Cl)cc3)c2)ccc1OCCN [Example 67, 4-(2-aminoethoxy)-N-[3-(4-chlorophenyl)phenyl]-3-methoxyphenylacetamide] | – | – | – | 90.2% | 3.8 ± 1.3 | 13.4 ± 2.8 | –
COc1cc(CC(=O)Nc2cccc(-c3ccc4c(c3)OCO4)c2)ccc1OCCN [Example 164, 4-(2-aminoethoxy)-N-[3-(2H-benzo[d]-1,3-dioxolan-5-yl)phenyl]-3-methoxyphenylacetamide] | – | – | – | – | 5.4 ± 2.8 | no significant increase | ED50 (mg/kg po) ([1]; oral administration, writhing inhibition): 1.56 mg/kg; Inhibitory percentage (%) ([1]; writhing inhibition, orally administered at a dose of 10 mg/kg, 60 minutes before PBQ): 99.0%; Number of wiping movements ([2]; concentration 500 μg/ml, listed as Ex. 164): 2.8 ± 1.7
COc1cc(CC(=O)Nc2cccc(-c3cccc(Oc4ccccc4)c3)c2)ccc1OCCN [Example 186, 4-(2-aminoethoxy)-3-methoxy-N-[3-(3-phenoxyphenyl)phenyl]-phenylacetamide] | 1.83 mg/kg | – | – | 84.3% | 4.0 ± 1.1 | 12.2 ± 2.0 | –
COc1cc(CC(=O)Nc2cccc(N3CCCC4(CCCCC4)C3)c2)ccc1OCCN [Example 201, 4-(2-aminoethoxy)-3-methoxy-N-[3-(2-azaspiro[5, 5]undecan-2-yl)phenyl]phenylacetamide] | 2.04 mg/kg | – | – | 100% | – | – | –
COc1cc(CC(=O)Nc2cccc(CCc3cccc(C)c3)c2)ccc1OCCN [Example 217, 4-(2-aminoethoxy)-3-methoxy-N-[3-[2-(3-methylphenyl)ethyl]-phenyl]phenylacetamide] | 1.13 mg/kg | – | – | 96.3% | – | – | –
COc1cc(CC(=O)Nc2cccc(CCc3ccccc3F)c2)ccc1OCCN [Example 219, 4-(2-aminoethoxy)-3-methoxy-N-[3-[2-(2-fluorophenyl)ethyl]-phenyl]phenylacetamide] | 1.46 mg/kg | – | – | 94% | – | – | –
COc1cc(CC(=O)Nc2ccc3c(c2)C(=O)C(Cc2ccccc2)CC3)ccc1OCCN (centres unmarked) [Example 225, 4-(2-aminoethoxy)-3-methoxy-N-[1-oxo-2-phenylmethyl-1,2,3,4-tetrahydronaphthalen-7-yl]phenylacetamide] | 4.79 mg/kg | – | – | 73.5% | – | no significant increase | Number of wiping movements ([2]; concentration 500 μg/ml, listed as Ex. 225): 4.4 ± 2.1; Number of wiping movements ([2]; concentration 1000 μg/ml): 1.6 ± 1.2
COc1cc(CC(=O)Nc2ccc3ccn(Cc4ccccc4)c3c2)ccc1OCCN [Example 238, 4-(2-aminoethoxy)-3-methoxy-N-[1-benzylindol-6-yl]phenylacetamide] | – | 70.2% | 0.37 mg/kg | – | – | – | –
COc1cc(CC(=O)Nc2ccc3c(c2)C(=O)C(Cc2ccccc2)CC3)ccc1O (centres unmarked) [Example 249, 4-hydroxy-3-methoxy-N-[1-oxo-2-phenylmethyl-1,2,3,4-tetrahydronaphthalen-7-yl]phenylacetamide] | – | 89.4% | – | – | – | – | ED50 (mg/kg sc) ([1]; subcutaneous administration, writhing inhibition, listed as Ex. 249): 0.043 mg/kg
CCCCCc1ccc(C(=O)NCc2ccc(O)c(OC)c2)cc1 [N-(4-hydroxy-3-methoxybenzyl)-4-pentylbenzamide] | – | – | – | – | – | – | analgesic effect [3]: no analgesic effect
Oc1cc2c(cc1O)CN(C(=S)NCCc1ccc(Cl)cc1)CCC2 [capsazepin] | – | – | – | – | – | – | analgesic effect [4]: significant analgesic effect
